From patent US20250243245A1 (priority 2022, published 2025)
Where a SMILES comes first, the peptide text is derived from it.

tested on: E. coli strain BL21; conditions: BL21, 24 h

Structure (SMILES) | MIC [mM]
CC(C)C[C@H](NC(=O)[C@H](CO)NC(=O)[C@H](CCCCN)NC(=O)[C@H](CC(C)C)NC(=O)[C@H](CCCCN)NC(=O)[C@H](CCC(=O)O)NC(=O)[C@H](CC(C)C)NC(=O)[C@H](CC(C)C)NC(=O)[C@H](CCC(=O)O)NC(=O)[C@H](CCC(=O)O)NC(=O)[C@H](CC(C)C)NC(=O)[C@H](CCCNC(=N)N)NC(=O)[C@H](CCCCN)NC(=O)[C@@H]1CCCN1C(=O)[C@@H](N)CCC(N)=O)C(=O)N[C@@H](CCC(=O)O)C(=O)NCC(=O)N[C@@H](CO)C(=O)N[C@@H](CCCCN)C(=O)N[C@@H](C)C(=O)N[C@@H](Cc1c[nH]cn1)C(=O)N[C@@H](CCC(=O)O)C(=O)N[C@@H](CCCCN)C(=O)N[C@@H](CC(C)C)C(=O)N[C@@H](Cc1c[nH]cn1)C(=O)N[C@@H](CC(=O)O)C(=O)N[C@@H](Cc1c[nH]c2ccccc12)C(=O)N[C@H](C(=O)N[C@@H](CCCNC(=N)N)C(=O)N[C@@H](CCCCN)C(=O)O)[C@@H](C)O [UGK-49] (H-QPKRLEELLEKLKSLEGSKAHEKLHDWTRK-OH; N-terminus and C-terminus assumed) | >20
CC(C)C[C@H](NC(=O)[C@H](CCCNC(=N)N)NC(=O)[C@H](CCCNC(=N)N)NC(=O)[C@H](CCC(N)=O)NC(=O)[C@H](Cc1c[nH]c2ccccc12)NC(=O)[C@H](CCC(N)=O)NC(=O)[C@H](Cc1ccccc1)NC(=O)[C@H](C)NC(=O)[C@H](CCC(=O)O)NC(=O)[C@@H]1CCCN1C(=O)[C@H](CC(C)C)NC(=O)[C@@H](N)CCCNC(=N)N)C(=O)N[C@@H](CCCNC(=N)N)C(=O)N[C@@H](CCCNC(=N)N)C(=O)N[C@@H](Cc1c[nH]c2ccccc12)C(=O)N[C@@H](CCCNC(=N)N)C(=O)N[C@@H](CCCNC(=N)N)C(=O)N1CCC[C@H]1C(=O)N[C@@H](CC(=O)O)C(=O)N[C@@H](CO)C(=O)N1CCC[C@H]1C(=O)NCC(=O)N[C@@H](CCCNC(=N)N)C(=O)N[C@@H](CCCNC(=N)N)C(=O)N[C@@H](Cc1c[nH]c2ccccc12)C(=O)N[C@@H](Cc1c[nH]c2ccccc12)C(=O)N[C@@H](CCCNC(=N)N)C(=O)N[C@@H](Cc1c[nH]c2ccccc12)C(=O)N[C@@H](Cc1c[nH]c2ccccc12)C(=O)N[C@@H](CCCNC(=N)N)C(=O)O [UGK-5] (H-RLPEAFQWQRRLRRWRRPDSPGRRWWRWWR-OH; N-terminus and C-terminus assumed) | 5 to 10
CC[C@H](C)[C@H](NC(=O)[C@H](CCCNC(=N)N)NC(=O)[C@H](CCCNC(=N)N)NC(=O)[C@H](CCC(N)=O)NC(=O)[C@H](Cc1c[nH]c2ccccc12)NC(=O)[C@H](Cc1ccccc1)NC(=O)CNC(=O)[C@@H]1CCCN1C(=O)[C@H](CO)NC(=O)CNC(=O)[C@H](Cc1ccc(O)cc1)NC(=O)CNC(=O)[C@H](CO)NC(=O)CNC(=O)[C@H](CCCNC(=N)N)NC(=O)[C@H](Cc1c[nH]c2ccccc12)NC(=O)[C@H](Cc1c[nH]c2ccccc12)NC(=O)[C@H](CCCNC(=N)N)NC(=O)[C@H](Cc1c[nH]c2ccccc12)NC(=O)[C@H](Cc1c[nH]c2ccccc12)NC(=O)[C@H](CCCNC(=N)N)NC(=O)[C@@H](N)CCCNC(=N)N)C(=O)N[C@@H](CCCNC(=N)N)C(=O)N[C@@H](CCCNC(=N)N)C(=O)N[C@@H](Cc1c[nH]c2ccccc12)C(=O)N[C@@H](CCCNC(=N)N)C(=O)N[C@@H](CCCNC(=N)N)C(=O)O [Peptide 27P-1] (H-RRWWRWWRGSGYGSPGFWQRRIRRWRR-OH; N-terminus and C-terminus assumed) | >20
CC[C@H](C)[C@H](N)C(=O)N[C@@H](CCC(=O)O)C(=O)N[C@@H](CCCNC(=N)N)C(=O)N[C@@H](CO)C(=O)N[C@H](C(=O)N[C@@H](CC(N)=O)C(=O)N[C@@H](CC(C)C)C(=O)N[C@@H](CC(=O)O)C(=O)N[C@@H](Cc1c[nH]c2ccccc12)C(=O)N[C@@H](Cc1ccc(O)cc1)C(=O)N[C@@H](CCCCN)C(=O)NCC(=O)N1CCC[C@H]1C(=O)N[C@H](C(=O)N[C@@H](CC(C)C)C(=O)N[C@@H](CC(C)C)C(=O)O)[C@@H](C)O)[C@@H](C)O [Peptide 16P-1, reference compound] (H-IERSTNLDWYKGPTLL-OH; N-terminus and C-terminus assumed) | >20
CC[C@H](C)[C@H](NC(=O)[C@H](CC(N)=O)NC(=O)[C@H](CCCNC(=N)N)NC(=O)[C@H](CCC(N)=O)NC(=O)[C@H](Cc1c[nH]c2ccccc12)NC(=O)[C@H](CCC(N)=O)NC(=O)[C@@H](N)Cc1ccccc1)C(=O)N[C@@H](CCCNC(=N)N)C(=O)N[C@@H](CCCCN)C(=O)N[C@H](C(=O)N[C@@H](CCCNC(=N)N)C(=O)O)C(C)C [Peptide 11P-2, FQWORNIRKVR, reference compound] (H-FQWQRNIRKVR-OH) | >20
CC[C@H](C)[C@H](NC(=O)[C@H](CCCNC(=N)N)NC(=O)[C@H](CCCNC(=N)N)NC(=O)[C@H](CCC(N)=O)NC(=O)[C@H](Cc1c[nH]c2ccccc12)NC(=O)[C@H](Cc1ccccc1)NC(=O)CNC(=O)[C@@H]1CCCN1C(=O)[C@H](CO)NC(=O)CNC(=O)[C@H](CCCCN)NC(=O)[C@H](CC(C)C)NC(=O)[C@H](CO)NC(=O)[C@H](CCCCN)NC(=O)[C@H](CC(C)C)NC(=O)[C@@H](NC(=O)[C@H](CCC(=O)O)NC(=O)[C@H](CC(C)C)NC(=O)[C@H](CC(C)C)NC(=O)[C@H](CCCCN)NC(=O)[C@H](CCC(N)=O)NC(=O)[C@@H]1CCCN1C(=O)[C@H](CC(C)C)NC(=O)[C@H](CCCCN)NC(=O)[C@@H](N)CCCCN)[C@@H](C)CC)C(=O)N[C@@H](CCCNC(=N)N)C(=O)N[C@@H](CCCNC(=N)N)C(=O)N[C@@H](Cc1c[nH]c2ccccc12)C(=O)N[C@@H](CCCNC(=N)N)C(=O)N[C@@H](CCCNC(=N)N)C(=O)O [UGK-21] | 1.25 to 2.5
CC[C@H](C)[C@H](NC(=O)[C@H](CCCCN)NC(=O)[C@H](CC(C)C)NC(=O)[C@@H](NC(=O)[C@H](CCCCN)NC(=O)[C@H](CCCCN)NC(=O)[C@@H](NC(=O)[C@H](CC(C)C)NC(=O)[C@H](CCCCN)NC(=O)[C@H](CCCCN)NC(=O)CNC(=O)[C@@H]1CCCN1C(=O)[C@H](CO)NC(=O)CNC(=O)[C@H](Cc1ccc(O)cc1)NC(=O)CNC(=O)[C@H](CO)NC(=O)CNC(=O)[C@H](CCCNC(=N)N)NC(=O)[C@H](CCCNC(=N)N)NC(=O)[C@H](Cc1c[nH]c2ccccc12)NC(=O)[C@H](CCCNC(=N)N)NC(=O)[C@H](CCCNC(=N)N)NC(=O)[C@@H](NC(=O)[C@H](CCCNC(=N)N)NC(=O)[C@H](CCCNC(=N)N)NC(=O)[C@H](CCC(N)=O)NC(=O)[C@H](Cc1c[nH]c2ccccc12)NC(=O)[C@@H](N)Cc1ccccc1)[C@@H](C)CC)[C@@H](C)CC)[C@@H](C)CC)C(=O)N[C@@H](CC(C)C)C(=O)O [Peptide 30P-2] (H-FWQRRIRRWRRGSGYGSPGKKLIKKILKIL-OH; N-terminus and C-terminus assumed) | 1.25 to 2.5
CC[C@H](C)[C@H](NC(=O)[C@H](CCCCN)NC(=O)[C@H](CC(C)C)NC(=O)[C@@H](NC(=O)[C@H](CCCCN)NC(=O)[C@H](CCCCN)NC(=O)[C@@H](NC(=O)[C@H](CC(C)C)NC(=O)[C@H](CCCCN)NC(=O)[C@@H](N)CCCCN)[C@@H](C)CC)[C@@H](C)CC)C(=O)N[C@@H](CC(C)C)C(=O)NCC(=O)N[C@@H](CO)C(=O)NCC(=O)N[C@@H](Cc1ccc(O)cc1)C(=O)NCC(=O)N[C@@H](CO)C(=O)N1CCC[C@H]1C(=O)NCC(=O)N[C@@H](Cc1ccccc1)C(=O)N[C@@H](Cc1c[nH]c2ccccc12)C(=O)N[C@@H](CCC(N)=O)C(=O)N[C@@H](CCCNC(=N)N)C(=O)N[C@@H](CCCNC(=N)N)C(=O)N[C@H](C(=O)N[C@@H](CCCNC(=N)N)C(=O)N[C@@H](CCCNC(=N)N)C(=O)N[C@@H](Cc1c[nH]c2ccccc12)C(=O)N[C@@H](CCCNC(=N)N)C(=O)N[C@@H](CCCNC(=N)N)C(=O)O)[C@@H](C)CC [Peptide 30P-1] | 1.25 to 2.5
CC[C@H](C)[C@H](NC(=O)[C@H](CCCNC(=N)N)NC(=O)[C@H](CCCNC(=N)N)NC(=O)[C@H](CCC(N)=O)NC(=O)[C@H](Cc1c[nH]c2ccccc12)NC(=O)[C@H](Cc1ccccc1)NC(=O)CNC(=O)[C@@H]1CCCN1C(=O)[C@H](CO)NC(=O)CNC(=O)[C@H](Cc1ccc(O)cc1)NC(=O)[C@@H](NC(=O)[C@H](CO)NC(=O)CNC(=O)[C@H](Cc1ccc(O)cc1)NC(=O)[C@H](CO)NC(=O)CNC(=O)[C@H](CCCNC(=N)N)NC(=O)[C@H](Cc1c[nH]c2ccccc12)NC(=O)[C@H](Cc1c[nH]c2ccccc12)NC(=O)[C@H](CCCNC(=N)N)NC(=O)[C@H](Cc1c[nH]c2ccccc12)NC(=O)[C@H](Cc1c[nH]c2ccccc12)NC(=O)[C@H](CCCNC(=N)N)NC(=O)[C@@H](N)CCCNC(=N)N)C(C)C)C(=O)N[C@@H](CCCNC(=N)N)C(=O)N[C@@H](CCCNC(=N)N)C(=O)N[C@@H](Cc1c[nH]c2ccccc12)C(=O)N[C@@H](CCCNC(=N)N)C(=O)N[C@@H](CCCNC(=N)N)C(=O)O [UGI-7] (H-RRWWRWWRGSYGSVYGSPGFWQRRIRRWRR-OH; N-terminus and C-terminus assumed) | 5 to 10
CC(C)C[C@H](NC(=O)[C@H](CO)NC(=O)[C@H](CCCCN)NC(=O)[C@H](CC(C)C)NC(=O)[C@H](CCCCN)NC(=O)[C@H](CCC(N)=O)NC(=O)[C@H](CC(C)C)NC(=O)[C@H](CC(C)C)NC(=O)[C@H](CCC(=O)O)NC(=O)[C@H](CCC(=O)O)NC(=O)[C@H](CC(C)C)NC(=O)[C@H](CCCNC(=N)N)NC(=O)[C@H](CCCCN)NC(=O)[C@@H]1CCCN1C(=O)[C@@H](N)CC(C)C)C(=O)N[C@@H](CCC(=O)O)C(=O)NCC(=O)N[C@@H](CO)C(=O)N[C@@H](CCCCN)C(=O)N[C@@H](C)C(=O)N[C@@H](Cc1c[nH]cn1)C(=O)N[C@@H](CCC(=O)O)C(=O)N[C@@H](CCCCN)C(=O)N[C@@H](CC(C)C)C(=O)N[C@@H](Cc1c[nH]cn1)C(=O)N[C@@H](CC(=O)O)C(=O)N[C@@H](Cc1c[nH]c2ccccc12)C(=O)N[C@H](C(=O)N[C@@H](CCCNC(=N)N)C(=O)N[C@@H](CCCCN)C(=O)O)[C@@H](C)O [UGK-45] (H-LPKRLEELLQKLKSLEGSKAHEKLHDWTRK-OH; N-terminus and C-terminus assumed) | >20
N=C(N)NCCC[C@H](NC(=O)[C@H](Cc1c[nH]c2ccccc12)NC(=O)[C@H](Cc1c[nH]c2ccccc12)NC(=O)[C@H](CCCNC(=N)N)NC(=O)[C@H](Cc1c[nH]c2ccccc12)NC(=O)[C@H](Cc1c[nH]c2ccccc12)NC(=O)[C@H](CCCNC(=N)N)NC(=O)[C@@H](N)CCCNC(=N)N)C(=O)O [Peptide 8P-1, reference compound] (H-RRWWRWWR-OH; N-terminus and C-terminus assumed) | >20
